Target: Human factor D (Homo sapiens (Human), UniProt P00746)
Test: Human Factor D Assay
Format: biochemical
Details: human factor D 80 nM, substrate Z-L-Lys-SBzl, DTNB, OD405
Method: Human factor D (purified from human serum, Complement Technology, Inc.) at 80 nM final concentration is incubated with test compound at various concentrations for 5 minutes at room temperature in 50 mM Tris, 1M NaCl, pH 7.5. A synthetic substrate Z-L-Lys-SBzl and DTNB (Ellman's reagent) are added to final concentrations of 10 μM each. The increase in color is recorded at OD405 nm in a microplate in kinetic mode over 30 minutes with 30 second time points in a […]. IC50 values are calculated by non-linear regression from the percentage of inhibition of complement factor D activity as a function of test compound concentration.

Sequence of Human factor D (P00746 26-253): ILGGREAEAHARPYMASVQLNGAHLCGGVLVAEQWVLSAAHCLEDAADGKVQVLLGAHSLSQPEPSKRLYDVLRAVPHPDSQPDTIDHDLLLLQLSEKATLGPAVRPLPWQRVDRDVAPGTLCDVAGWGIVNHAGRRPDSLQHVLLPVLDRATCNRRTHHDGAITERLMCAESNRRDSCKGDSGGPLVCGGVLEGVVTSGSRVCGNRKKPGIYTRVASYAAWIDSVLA

| SMILES | IC50 [nM] |
| --- | --- |
| NC(=O)c1nn(CC(=O)N2C[C@H](F)C[C@H]2C(=O)Nc2cccc(-c3ccc4[nH]cnc4c3Cl)c2F)c2ccccc12 [Compound 122, 1-(2-((2S,4R)-2-(3-(4-chloro-1H-benzo[d]imidazol-5-yl)-2-fluorophenylcarbamoyl)-4-fluoropyrrolidin-1-yl)-2-oxoethyl)-1H-indazole-3-carboxamide] | < 1000 |
| CC(=O)n1cc(NC(=O)[C@H]2CC(F)(F)CN2C(=O)Cc2cccc(Cl)c2F)c2ccccc21 [Compound 17, (R)-N-(1-acetyl-1H-indol-3-yl)-1-(2-(3-chloro-2-fluorophenyl)acetyl)-4,4-difluoropyrrolidine-2-carboxamide] | > 10000 |
| NC(=O)n1cc(NC(=O)C2=C(C(=O)NCc3cccc(Cl)c3F)CCC2)c2ccccc21 [Compound 31, N1-(1-carbamoyl-1H-indol-3-yl)-N2-(3-chloro-2-fluorobenzyl)cyclopent-1-ene-1,2-dicarboxamide] | > 10000 |
| CC(=O)c1cn(CC(=O)N2C[C@H](F)C[C@H]2C(=O)Nc2cccc(-c3ccccc3Cl)c2F)c2cccc(C#N)c12 [Compound 97, (2S,4R)-1-(2-(3-acetyl-4-cyano-1H-indol-1-yl)acetyl)-N-(2′-chloro-2-fluorobiphenyl-3-yl)-4-fluoropyrrolidine-2-carboxamide] | < 1000 |
| CC(=O)c1cn(CC(=O)N2C[C@H](F)C[C@H]2C(=O)Nc2cccc(-c3cc(F)cc(F)c3Cl)c2F)c2ccccc12 [Compound 95, (2S,4R)-1-(2-(3-acetyl-1H-indol-1-yl)acetyl)-N-(2′-chloro-2,3′,5′-trifluorobiphenyl-3-yl)-4-fluoropyrrolidine-2-carboxamide] | < 1000 |
| CC(=O)Nc1cccc2c1c(C(C)=O)cn2CC(=O)N1C[C@H](F)C[C@H]1C(=O)Nc1cccc(-c2ccccc2Cl)c1F [Compound 91, (2S,4R)-1-(2-(4-acetamido-3-acetyl-1H-indol-1-yl)acetyl)-N-(2′-chloro-2-fluorobiphenyl-3-yl)-4-fluoropyrrolidine-2-carboxamide] | > 10000 |
| CC(=O)n1cc(NC(=O)N2C[C@H](F)C[C@H]2C(=O)NS(=O)(=O)c2cccc(Cl)c2F)c2ccccc21 [Compound 7, (2S,4R)-N1-(1-acetyl-1H-indol-3-yl)-N2-(3-chloro-2-fluorophenylsulfonyl) - 4-fluoropyrrolidine-1,2-dicarboxamide] | > 10000 |
| NC(=O)c1cn(CC(=O)N2C[C@H](F)C[C@H]2c2nc3cc(-c4ccccc4Cl)ccc3[nH]2)c2ccccc12 [Compound 121, 1-(2-((2S,4R)-2-(5-(2-chlorophenyl)-1H-benzo[d]imidazol-2-yl)-4-fluoropyrrolidin-1-yl)-2-oxoethyl)-1H-indole-3-carboxamide] | > 10000 |
| CC(=O)c1cn(CC(=O)N2[C@H](C(=O)NCc3cccc(Cl)c3F)C[C@@H]3CCCC[C@@H]32)c2cc(O)ccc12 [Compound 35, (2S,3aS,7aS)-1-(2-(3-acetyl-6-hydroxy-1H-indol-1-yl)acetyl)-N-(3-chloro-2-fluorobenzyl)octahydro-1H-indole-2-carboxamide] | < 1000 |
| CC(=O)c1cn(CC(=O)N2C[C@H](F)C[C@H]2C(=O)Nc2cccc(Br)n2)c2ccc(C3(N4C(=O)c5ccccc5C4=O)CC3)cc12 [Compound 81, (2S,4R)-1-(2-(3-acetyl-5-(1-(1,3-dioxoisoindolin-2-yl)cyclopropyl)-1H-indol-1-yl)acetyl)-N-(6-bromopyridin-2-yl)-4-fluoropyrrolidine-2-carboxamide] | < 1000 |
| COc1ccc2c(O[C@@H]3C[C@@H](C(=O)NCc4cccc(Cl)c4F)N(C(=O)Nc4cn(C(C)=O)c5ccccc45)C3)cc(-c3ccccc3)nc2c1 [Compound 19, (2S,4R)-N1-(1-acetyl-1H-indol-3-yl)-N2-(3-chloro-2-fluorobenzyl)-4-(7-methoxy-2-phenylquinolin-4-yloxy)pyrrolidine-1,2-dicarboxamide] | > 10000 |
| CC(=O)c1cn(CC(=O)N2C[C@H](F)C[C@H]2c2nc3cc(Cl)ccc3[nH]2)c2ccccc12 [Compound 15, 2-(3-acetyl-1H-indol-1-yl)-1-((2S,4R)-2-(5-chloro-1H-benzo[d]imidazol-2-yl)-4-fluoropyrrolidin-1-yl)ethanone] | > 10000 |
| CC(=O)c1cn(CC(=O)N2C[C@H](F)C[C@H]2C(=O)Nc2cccc(-c3ccccc3Cl)c2F)c2c(-c3cn[nH]c3)cccc12 [Compound 114, (2S,4R)-1-(2-(3-acetyl-7-(1H-pyrazol-4-yl)-1H-indol-1-yl)acetyl)-N-(2′-chloro-2-fluorobiphenyl-3-yl)-4-fluoropyrrolidine-2-carboxamide] | < 1000 |
| CC(C)(C)OC(=O)N[C@@H](Cc1c[nH]c2ccccc12)C(=O)N1C[C@H](F)C[C@H]1C(=O)NCc1cccc(Cl)c1F [Compound 38, tert-butyl (S)-1-((2S,4R)-2-(3-chloro-2-fluorobenzylcarbamoyl)-4-fluoropyrrolidin-1-yl)-3-(1H-indol-3-yl)-1-oxopropan-2-ylcarbamate] | > 10000 |

The next lines start with the values.

| IC50 [nM] | SMILES |
| --- | --- |
| < 1000 | NC(=O)c1nn(CC(=O)N2[C@@H]3C[C@@H]3C[C@H]2C(=O)Nc2cccc(-c3ccccc3Cl)c2F)cc1Br [Compound 77, (1R,3S,5R)-2-(2-(4-bromo-3-carbamoyl-1H-pyrazol-1-yl)acetyl)-N-(2′-chloro-2-fluorobiphenyl-3-yl)-2-azabicyclo[3.1.0]hexane-3-carboxamide] |
| > 10000 | CC(=O)n1cc(C(=O)C(=O)N2C[C@H](F)C[C@H]2C(=O)NCc2cccc(Cl)c2F)c2ccccc21 [Compound 71, (2S,4R)-1-(2-(1-acetyl-1H-indol-3-yl)-2-oxoacetyl)-N-(3-chloro-2-fluorobenzyl)-4-fluoropyrrolidine-2-carboxamide] |
| < 1000 | NC(=O)c1nn(CC(=O)N2[C@@H]3C[C@@H]3C[C@H]2C(=O)NCc2cccc(Cl)c2F)c2ccsc12 [Compound 107, 1-(2-((1R,3S,5R)-3-(3-chloro-2-fluorobenzylcarbamoyl)-2-azabicyclo[3.1.0]hexan-2-yl)-2-oxoethyl)-1H-thieno[3,2-c]pyrazole-3-carboxamide] |
| > 10000 | CC(C)(C)OC(=O)N1CCc2c(n(CC(=O)N3C[C@H](F)C[C@H]3C(=O)NCc3cccc(Cl)c3F)c3ccccc23)C1 [Compound 67, tert-butyl 9-(2-((2S,4R)-2-(3-chloro-2-fluorobenzylcarbamoyl)-4-fluoropyrrolidin-1-yl)-2-oxoethyl)-3,4-dihydro-1H-pyrido[3,4-b]indole-2(9H)-carboxylate] |
| < 1000 | Cc1cc2c(s1)c(C(N)=O)nn2CC(=O)N1C[C@H](F)C[C@H]1C(=O)Nc1cccc(-c2ccccc2Cl)c1F [Compound 113, 1-(2-((2S,4R)-2-(2′-chloro-2-fluorobiphenyl-3-ylcarbamoyl)-4-fluoropyrrolidin-1-yl)-2-oxoethyl)-5-methyl-1H-thieno[3,2-c]pyrazole-3-carboxamide] |
| < 1000 | NC(=O)c1cn(CC(=O)N2C[C@H](F)C[C@H]2C(=O)Nc2cccc(-c3ccccc3Cl)c2F)c2sccc12 [Compound 98, 6-(2-((2S,4R)-2-(2′-chloro-2-fluorobiphenyl-3-ylcarbamoyl)-4-fluoropyrrolidin-1-yl)-2-oxoethyl)-6H-thieno[2,3-b]pyrrole-4-carboxamide] |
| < 1000 | NC(=O)c1nn(CC(=O)N2C[C@H](F)C[C@H]2C(=O)Nc2cccc(-c3ccccc3Cl)c2F)c2ccsc12 [Compound 99, 1-(2-((2S,4R)-2-(2′-chloro-2-fluorobiphenyl-3-ylcarbamoyl)-4-fluoropyrrolidin-1-yl)-2-oxoethyl)-1H-thieno[3,2-c]pyrazole-3-carboxamide] |
